Patent US20200246365A1, “COMPOUNDS, PHARMACEUTICAL COMPOSITIONS AND USE THEREOF AS INHIBITORS OF RAN GTPASE” (THE ROYAL INSTITUTION FOR THE ADVANCEMENT OF LEARNING / …, priority 2017, published 2020)

Legend:
[1] = target: T1, recombinant human Ran protein (Homo sapiens, UniProt P62826); test: Surface Plasmon Resonance (SPR) binding to immobilized Ran; details: different compound concentrations, reached saturation
T1 construct: Recombinant Ran protein was purchased from Sigma-Aldrich Inc. (R3152)
Description: SPR experiments were carried out using the Biacore 3000 system. Recombinant Ran protein was purchased from Sigma-Aldrich Inc. (R3152). The running buffer contained PBS, pH7.4, 1 mM GDP, 2 mM MgCl2 and 0.2% DMSO. The regeneration buffer contained 10 mM glycine (pH 2.5). Ran-GDP protein was immobilized onto a CM5 chip; samples of compounds in running buffer were injected at 30 μL/min for 10 minutes contact time followed by 5 minutes regeneration. Kd was calculated using the GraphPad Prism 5 software.

TOV112D cells = test: Clonogenic survival assay, TOV112D; type: cell-based, human
Description: (§1) The human EOC cell lines used (TOV81D, TOV112D, OV90, TOV21G, OV866(2), TOV1369(R), OV1369(R2), TOV1946, OV1946, TOV2295(R), OV4485) were derived in our laboratory from patients' tumors (TOV) or ascites (OV). All EOC cell lines were maintained in a low oxygen condition of 7% O2 and 5% CO2 and grown in OSE medium (Wisent, Montreal, QC) supplemented with 10% FBS (Wisent), 0.5 μg/mL amphotericin B (Wisent) and 50 μg/mL gentamicin (Life Technologies Inc., Burlington, ON). The human retinal epithelial cell line ARPE-19 was purchased from American Type Culture Collection (ATCC, Manassas, Va.) and maintained in DMEM-F12 (Wisent) supplemented with 10% FBS (Wisent), 0.5 μg/mL amphotericin B (Wisent) and 50 μg/mL gentamicin (Life Technologies Inc.).
(§2) Clonogenic assays were performed as previously described. Colonies were counted under a stereo microscope and reported as percent of control. IC50 values were determined using Graph Pad Prism 5 software (GraphPad Software Inc., San Diego, Calif.). Each experiment was performed in duplicate and repeated three times. Sensitivity of the cell lines to small molecules inhibitors of Ran was assessed using a concentration range of 0-50 μM.
(§3) Small molecules inhibitors of Ran were dissolved in 100% dimethyl sulfoxide (DMSO) and then further diluted in complete culture media for in vitro experiments. Drugs were added 24 hours after seeding.

ARPE-19 cells = test: Clonogenic survival assay, ARPE-19; type: cell-based, human
Description: as §1, §2, §3

[2] = test system: other aneuploid EOC cells; test: IncuCyte cell proliferation assay, other aneuploid EOC cell lines; type: cell-based, human; details: 40 μM
Description: as §1
Cells (2,000 cells/well) were plated in a 96-well plate. The next day, compounds were added at the indicated concentrations. Following treatment, cell confluence was imaged by phase contrast using the IncuCyte live cell monitoring system (Essen BioScience, Ann Arbor, Mich.). Frames were captured at 2-hour intervals using a 10× objective. For Ran knock down experiments, cells were seeded in a 96-well plate (4,000 cells/well) directly after transfection. Cell confluence monitoring started the next day as described above.
as §3

Ran-GTP [3] = target: T2, Ran-GTP (Homo sapiens, UniProt P62826); test: Ran activation (Ran-GTP pull-down) assay in TOV112D cells; type: cell-based; details: 1 hour treatment, vs DMSO
Description: Cells were seeded onto 6-well tissue culture plates in such a way that cell confluence reaches approximately 70% the day of experiment. The day of experiment cells were treated for 1 hour with the indicated compounds prior to protein extraction and quantification. Assays were performed using the Ran activation assay kit (Cell Biolabs). Briefly, 400 μg of lysates were incubated for one hour at 4° C. with agarose beads conjugated to RANBP1, which specifically binds Ran-GTP. Beads were pelleted, washed, and re-suspended in SDS-PAGE buffer, followed by immunoblotting with an anti-Ran antibody.

Rac1-GTP = Rac1-GTP (Homo sapiens, UniProt P63000); test: Rac1-GTP pull-down assay; type: cell-based; details: 50 μM M36 (FIG. 7F)
RhoA = RhoA (Homo sapiens, UniProt P61586); test: RhoA activation ELISA in TOV112D cells; type: cell-based; details: vs DMSO
Cdc42 = Cdc42 (Homo sapiens, UniProt P60953); test: Cdc42 activation ELISA in TOV112D cells; type: cell-based; details: vs DMSO
cleaved PARP = test: Apoptosis by PARP cleavage (Western blot); type: cell-based, human; details: 96 hours after treatment
Description: Cells were lysed with RIPA buffer containing protease inhibitors. Whole cell lysates were run through a Bradford assay (Thermo Fisher Scientific) for protein quantification. Around 25-50 μg of proteins were separated onto 12.5% SDS-PAGE and transferred onto nitrocellulose membranes. The resultant blots were probed with Ran (1:10000, sc-271376 Santa Cruz Biotechnology, Dallas, Tex.), cleaved PARP (1:1000, #9541, Cell Signaling Technology Inc., Danvers, Mass.), GAPDH (1:2500, #2118, Cell Signaling Technology Inc.) or beta-actin (1:50000, ab6276, Abcam Inc., Toronto, ON, Canada) primary antibodies overnight at 4° C. then with peroxidase-conjugated secondary antibodies for 2 hours at room temperature. Proteins were detected using enhanced chemiluminescence (Thermo Fisher Scientific).

Ran-GTP [4] = target: T2, Ran-GTP; test: Ran-GTP immunofluorescence in TOV112D cells; type: cell-based; details: TOV112D cells vs DMSO-treated
Description: M36 and R28-treated and control TOV112D cells grown on coverslips were washed with 1×PBS, fixed in 4% paraformaldehyde and permeabilized with 0.25% Triton X-100 (Sigma-Aldrich Inc.). After blocking (4% BSA and 4% FBS in PBS), coverslips were incubated with the monoclonal anti-RanGTP antibody (26915, NewEastBioscences) diluted 1:100 in blocking buffer for 2 hours at room temperature. Subsequently, samples were incubated with Cy-5 secondary antibody (1:500, Life Technologies Inc.) for 1 hour and coverslips were mounted onto slides using Prolong® Gold anti-fade reagent with DAPI (Life Technologies Inc.). Samples were visualized under a Zeiss microscope (Zeiss observer Z1) with a 20× objective.

[5] = Pharmacokinetics in CD1 mice; type: in vivo
Description: For the pharmacokinetic studies, 6-week-old female CD1 mice (Charles River laboratories, Senneville, QC, Canada) received a single intravenous or intraperitoneal injection of M36 or QR20 (50 mg/kg), dissolved in DMSO 10%, Kolliphor® EL 10%, PEG-400 20% and PBS 60% (QR20 was also dissolved in DMSO 10%, PBS 90%). For each time point (15 minutes, 30 minutes, […], 1 hour, 2 hours and 6 hours), 3 mice were sacrificed and blood was collected by cardiac puncture. Thereafter, the plasma level of each compound was measured by mass spectrometry.

[6] = Tolerance test in NRG mice; type: in vivo; details: daily i.p. 75 mg/kg for 15 days
Description: For the tolerance test, M36 and QR20 compounds were dissolved in DMSO 10%, Kolliphor® EL 10%, PEG-400 20% and PBS 60% and injected intraperitoneally into 6-week-old female Nod Rag Gamma (NRG) mice (The Jackson laboratory, Bar Harbor, Me.) daily at 75 mg/kg. During this study, mice (n=3) were monitored for survival and weight loss/gain.

[7] = test system: prostate cancer cell lines (LNCaP, 22RV1, PC3, DU145); test: Cell proliferation, prostate cancer cell lines; type: cell-based
γH2AX foci = γH2AX foci immunostaining in TOV112D cells; type: cell-based, human
RAD51/Geminin foci (HR) = test: RAD51/Geminin foci after gamma-irradiation in TOV112D cells; type: cell-based, human
53BP1 = 53BP1 immunofluorescence after gamma-irradiation in TOV112D cells; type: cell-based, human
[8] = test system: TOV112D cells overexpressing DA Ran; test: Cell survival of TOV112D cells transfected with Ran WT or dominant active mutant; type: cell-based, human

Sequence of RhoA (P61586 whole entry): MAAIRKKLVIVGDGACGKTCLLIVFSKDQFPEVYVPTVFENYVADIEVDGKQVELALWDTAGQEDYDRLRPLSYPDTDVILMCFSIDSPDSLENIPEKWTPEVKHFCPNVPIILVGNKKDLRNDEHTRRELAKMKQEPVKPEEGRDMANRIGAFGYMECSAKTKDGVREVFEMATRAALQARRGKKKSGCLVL
Sequence of Cdc42 (P60953 whole entry): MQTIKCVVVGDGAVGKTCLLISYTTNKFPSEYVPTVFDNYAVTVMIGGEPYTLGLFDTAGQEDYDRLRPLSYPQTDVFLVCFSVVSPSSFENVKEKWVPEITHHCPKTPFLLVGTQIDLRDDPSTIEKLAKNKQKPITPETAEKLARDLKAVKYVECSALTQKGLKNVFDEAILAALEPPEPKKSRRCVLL

NC(=S)[C@@H]1O[C@H](COCc2ccc(F)cc2)[C@@H](OCc2ccc(F)cc2)[C@H]1OCc1ccc(F)cc1 [M36]
binding to the immobilized Ran protein [1]: concentration-dependent binding
IC50 (TOV112D cells; Homo sapiens, TOV112D, read-out: IC50 value for the TOV112D cell line by clonogenic assay): 10 ± 0.36 µM
colony formation of TOV112D cells (TOV112D cells; single dose 10 μM): inhibited colony formation of TOV112D cells
effect on normal ARPE-19 cell line in detailed clonogenic assay (ARPE-19 cells; different concentrations): almost no effect
colony formation of ARPE-19 cells (ARPE-19 cells; single dose 10 μM): without affecting the ARPE-19 cells
cell proliferation of other aneuploid EOC cells [2]: inhibited cell proliferation
active Ran-GTP levels (pull-down) (Ran-GTP [3]): concentration-dependent decrease in Ran-GTP levels
Rac1-GTP levels (pull-down) (Rac1-GTP): no decreased levels of Rac1-GTP
activation of RhoA (RhoA-GTP levels) (RhoA): does not inhibit the activation
activation of Cdc42 (Cdc42-GTP levels) (Cdc42): does not inhibit the activation
apoptosis (cleaved PARP on Western blot) (cleaved PARP): induced cell apoptosis
Ran-GTP levels by immunofluorescence (Ran-GTP [4]): no detectable levels of Ran-GTP
pharmacokinetics profile based on AUC values ([5]; 50 mg/kg): good pharmacokinetics profiles
absorption after intraperitoneal vs intravenous injection (plasma levels) ([5]; 50 mg/kg single injection): less absorbed than compound QR20
persistence in the circulation ([5]; 50 mg/kg single injection): persists longer in the circulation
tolerance [6]: well tolerated
weight loss [6]: no weight loss
effect on prostate cancer cell lines [7]: also effective in prostate cancer cell lines
DNA damage (γH2AX foci) (γH2AX foci; 48 hours or 72 hours treatment): increases DNA damage
DNA double-strand breaks repair (γH2AX foci clearance) (γH2AX foci; after gamma-irradiation): delays DNA double-strand breaks repair
HR pathway (RAD51/Geminin foci) (RAD51/Geminin foci (HR)): inhibiting the HR and NHEJ pathways
NHEJ pathway (53BP1 foci) (53BP1; after gamma-irradiation): inhibiting the HR and NHEJ pathways
nuclear localization of 53BP1 (53BP1; cytoplasmic staining): interferes with the nuclear localization of 53BP1
inhibition of cell proliferation with DA Ran overexpression [8]: attenuated when DA Ran was overexpressed
